Marks after values point to notes of the source that are not given here. One block for each molecule: values may come before it.
Experiment: logP determination via retention times, calibrated with unbranched alkan-2-ones
Format: physicochemical
[1] = HPLC on reversed-phase C18, method *: 40° C., 0.1% aqueous formic acid and acetonitrile, linear gradient 10% to 95% acetonitrile
[2] = HPLC reversed-phase C 18, EEC Directive 79/831 Annex V.A8, method **: 43° C., 0.1% aqueous phosphoric acid and acetonitrile, linear gradient 10% to 95% acetonitrile
[3] = method *: HPLC, reversed-phase C 18, 40° C., mobile phase 0.1% aqueous formic acid and acetonitrile, linear gradient from 10% to 95% acetonitrile
[4] = HPLC on reversed-phase C18 column (EEC Directive 79/831 Annex V.A8), method *: 40° C., 0.1% aqueous formic acid and acetonitrile, linear gradient 10% to 95% acetonitrile
[5] = HPLC on reversed-phase C 18, EEC Directive 79/831 Annex V.A8, method *: 40° C., 0.1% aqueous formic acid and acetonitrile, linear gradient 10% to 95% acetonitrile
[6] = method *: HPLC reversed-phase C 18, temperature 40° C., mobile phase 0.1% aqueous formic acid and acetonitrile, linear gradient 10% to 95% acetonitrile
[7] = method *: HPLC reversed-phase C18, 40° C., 0.1% aqueous formic acid and acetonitrile, linear gradient 10% to 95% acetonitrile
[8] = HPLC on reversed-phase C 18, method **: 43° C., 0.1% aqueous phosphoric acid and acetonitrile, linear gradient 10% to 95% acetonitrile
[9] = HPLC on reversed-phase C18, method *: 40° C., mobile phase 0.1% aqueous formic acid and acetonitrile, linear gradient 10% to 95% acetonitrile
[10] = method **: HPLC reversed-phase C 18, 43° C., 0.1% aqueous phosphoric acid and acetonitrile, linear gradient 10% to 95% acetonitrile
[11] = HPLC reversed-phase C 18, EEC Directive 79/831 Annex V.A8, method *: 40° C., 0.1% aqueous formic acid and acetonitrile, linear gradient 10% to 95% acetonitrile

logP [1]: 2.69*
Structure (SMILES): OC(c1cccc(Nc2ncc(C(F)(F)F)c(NC3CC3)n2)c1)C(F)(F)F (stereo not drawn) [compound 666]

logP [1]: 1.97*
Structure (SMILES): COc1cccc(Nc2ncc(Cl)c(NCC3CC3)n2)c1 [compound 668]

logP [2]: 1.47**
Structure (SMILES): Cc1nc(Nc2cccc(N3CCCC3=O)c2)nc(NC2CC2)c1Cl [compound 838]

logP [3]: 1.97*
Structure (SMILES): CC(C)Oc1ccc(Nc2ncc(Cl)c(NC3CC3)n2)cc1 [compound 989]

logP [4]: 1.86*
Structure (SMILES): Oc1ccc(Nc2ncc(Cl)c(NC3CC3)n2)cc1C1CCCC1 [compound 187]

logP [5]: 2.21*
Structure (SMILES): CCC(=O)c1cc(Nc2ncc(Br)c(NCC3CC3)n2)ccc1O [compound 488]

logP [1]: 2.01*
Structure (SMILES): Cc1ccc(Nc2ncc(Cl)c(NC3CC3)n2)cc1C [compound 939]

logP [1]: 1.29*
Structure (SMILES): CN1CC(=O)N(c2ccc(Nc3ncc(Cl)c(NC4CC4)n3)cc2)C1=O [Example 107]

logP [4]: 2.69*
Structure (SMILES): COC(c1cccc(Nc2ncc(Cl)c(NC3CC3)n2)c1)C(F)(F)F (stereo not drawn) [compound 270]

logP [6]: 1.05*
Structure (SMILES): CNC(=O)c1cccc(Nc2ncc(F)c(NC3CC3)n2)c1 [compound 585]

logP [7]: 1.79*
Structure (SMILES): CCCNS(=O)(=O)Cc1ccc(Nc2ncc(Cl)c(NC3CC3)n2)cc1 [compound 371]

logP [1]: 1.59*
Structure (SMILES): O=C(c1ccc(Nc2ncc(Cl)c(NCC3CC3)n2)cc1)N1CCOCC1 [compound 696]

logP [1]: 2.18*
Structure (SMILES): CCOc1cccc(Nc2ncc(Br)c(NC3CC3)n2)c1 [compound 751]

logP [1]: 1.66*
Structure (SMILES): NS(=O)(=O)c1cc(Nc2ncc(Cl)c(NC3CC3)n2)ccc1Cl [compound 949]

logP [4]: 1.44*
Structure (SMILES): COC(=O)Nc1cccc(Nc2ncc(Cl)c(NC3CC3)n2)c1 [compound 193]

logP [1]: 1.82*
Structure (SMILES): COCc1cccc(Nc2ncc(Cl)c(NCC3CC3)n2)c1 [compound 709]

logP [7]: 1.98*
Structure (SMILES): CC(C)(C)C(=O)Nc1cccc(Nc2ncc(Cl)c(NC3CC3)n2)c1 [Example 91]

logP [1]: 1.72*
Structure (SMILES): CC1COC(=O)N1c1ccc(Nc2ncc(Br)c(NCC3CC3)n2)cc1 (stereo not drawn) [compound 118]

logP [4]: 2.13*
Structure (SMILES): CC(=O)N(C)c1ccc(Nc2ncc(C(F)(F)F)c(NCC3CC3)n2)cc1 [compound 202]

logP [4]: 1.47*
Structure (SMILES): CN1C(=O)COc2cc(Nc3ncc(Cl)c(NC4CC4)n3)ccc21 [compound 179]

logP [1]: 1.94*
Structure (SMILES): CC(C)(C)NC(=O)Cc1cccc(Nc2ncc(Br)c(NC3CC3)n2)c1 [compound 698]

Structure (SMILES): CNC(=O)Oc1cccc(Nc2ncc(Br)c(NCC3CC3)n2)c1 [compound 429]
logP [7]: 1.68*

logP [6]: 1.38*
Structure (SMILES): CCN(C(C)=O)c1ccc(Nc2ncc(F)c(NC3CC3)n2)cc1 [compound 581]

logP [8]: 1.61**
Structure (SMILES): O=C1CCCN1c1cc(Nc2ncc(Br)c(NC3CC3)n2)ccc1F [compound 771]

logP [1]: 2.37*
Structure (SMILES): CO/N=C(\C)c1cccc(Nc2ncc(Cl)c(NC3CC3)n2)c1 [compound 732]

logP [9]: 2.25*
Structure (SMILES): CCC(=O)c1cccc(Nc2ncc(Cl)c(NC3CC3)n2)c1 [compound 304]

logP [9]: 3.42*
Structure (SMILES): CC1(c2ccc(Nc3ncc(Cl)c(NC4CC4)n3)cc2)CCCC1 [compound 310]

logP [10]: 2.13**
Structure (SMILES): O=S(=O)(c1cccc(Nc2ncc(Cl)c(NC3CC3)n2)c1)N1CCOCC1 [Example 19]

logP [5]: 1.92*
Structure (SMILES): COC(=O)Cc1cccc(Nc2ncc(Cl)c(NCC3CC3)n2)c1 [compound 504]

logP [9]: 1.85*
Structure (SMILES): COC(=O)Cc1ccc(Nc2ncc(Cl)c(NC3CC3)n2)cc1 [compound 287]

logP [4]: 3.55*
Structure (SMILES): FC(F)(F)Nc1cccc(Nc2ncc(Cl)c(NC3CC3)n2)c1 [compound 184]

logP [5]: 1.53*
Structure (SMILES): O=C1CCCN1c1cc(Nc2ncc(Cl)c(NC3CC3)n2)ccc1F [compound 536]

logP [5]: 2.21*
Structure (SMILES): O=C(Nc1cccc(Nc2ncc(Cl)c(NCC3CC3)n2)c1)c1ccccc1 [compound 557]

logP [1]: 1.25*
Structure (SMILES): Oc1ccc(Nc2ncc(Cl)c(NC3CC3)n2)cc1F [compound 105]

logP [11]: 1.31*
Structure (SMILES): O=C1COCCN1c1cccc(Nc2ncc(Cl)c(NCC3CC3)n2)c1 [compound 786]

logP [1]: 2.44*
Structure (SMILES): CSc1cccc(Nc2ncc(Br)c(NC3CC3)n2)c1 [compound 121]

chromatographic logP (pH 2.3, read-out: logP (pH2.3)): 1.82
Structure (SMILES): Ic1cnc(Nc2ccccc2)nc1NC1CC1 [N^4-Cyclopropyl-5-iodo-N^2-phenylpyrimidine-2,4-diamine]

logP [8]: 2.09**
Structure (SMILES): CN(CC1CC1)c1nc(Nc2ccc(N3CCCC3=O)cc2)ncc1Cl [compound 966]

logP [7]: 2.44*
Structure (SMILES): N#Cc1cnc(Nc2ccccc2)nc1NC1CC1 [compound 40]

logP [11]: 1.49*
Structure (SMILES): CC(O)C(=O)Nc1cccc(Nc2ncc(Cl)c(NC3CC3)n2)c1 (stereo not drawn) [compound 856]

logP (method **: HPLC, reversed-phase C 18, 43° C., mobile phase 0.1% aqueous phosphoric acid and acetonitrile, linear gradient from 10% to 95% acetonitrile): 2**
Structure (SMILES): CC1CC1Nc1nc(Nc2ccccc2)ncc1Cl (stereo not drawn) [compound 1008]

logP [11]: 2.82*
Structure (SMILES): CCSC(C)c1cccc(Nc2ncc(Cl)c(NC3CC3)n2)c1 (stereo not drawn) [compound 810]

logP [5]: 1.85*
Structure (SMILES): CC(=O)c1cc(Nc2ncc(Cl)c(NCC3CC3)n2)ccc1O [compound 553]

logP [4]: 2.43*
Structure (SMILES): CC(=O)c1cc(Nc2ncc(Cl)c(NC3CC3)n2)ccc1Cl [compound 249]

logP [7]: 3.79*
Structure (SMILES): CCCCSc1cccc(Nc2ncc(Cl)c(NC3CC3)n2)c1.Cc1ccc(S(=O)(=O)O)cc1 [compound 443]

logP [1]: 2.99*
Structure (SMILES): FC(F)(F)c1cnc(Nc2ccccc2)nc1NCC1CC1 [compound 922]

logP [4]: 2.91*
Structure (SMILES): COc1cccc(Nc2ncc(C(F)(F)F)c(NCC3CC3)n2)c1 [compound 199]

logP [2]: 1.67**
Structure (SMILES): COCc1cccc(Nc2nc(C)c(Cl)c(NC3CC3)n2)c1 [compound 839]

Structure (SMILES): CNC(=O)Oc1cccc(Nc2ncc(Br)c(NC3CC3)n2)c1 [compound 386]
logP [7]: 1.56*

logP [1]: 1.51*
Structure (SMILES): CNS(=O)(=O)Cc1ccc(Nc2ncc(Br)c(NC3CC3)n2)cc1 [compound 757]

logP [1]: 1.49*
Structure (SMILES): Oc1cccc(Nc2ncc(Cl)c(NCC3CC3)n2)c1 [compound 681]

logP [5]: 1.63*
Structure (SMILES): CN(C=O)c1ccc(Nc2ncc(Br)c(NCC3CC3)n2)cc1 [compound 490]

logP [1]: 1.51*
Structure (SMILES): CS(=O)(=O)Nc1ccc(Nc2ncc(Cl)c(NCC3CC3)n2)cc1 [compound 697]

logP [5]: 1.29*
Structure (SMILES): O=C1COCCN1c1ccc(Nc2ncc(Br)c(NC3CC3)n2)cc1 [compound 500]

logP [4]: 1.99*
Structure (SMILES): CCOC(=O)Cc1ccc(Nc2ncc(Cl)c(NC3CC3)n2)cc1 [compound 247]

logP [1]: 1.41*
Structure (SMILES): Oc1ccc(Nc2ncc(Br)c(NC3CC3)n2)cc1F [compound 764]

logP [7]: 2.1*
Structure (SMILES): CSc1ccc(Nc2ncc(Cl)c(NC3CC3)n2)cc1 [Example 69]

logP [5]: 1.73*
Structure (SMILES): CC(C)C(=O)Nc1ccc(Nc2ncc(Cl)c(NCC3CC3)n2)cc1 [compound 526]

logP [9]: 2.95*
Structure (SMILES): O=C1CCCN1c1cccc(Nc2ncc(Cl)c(NC3(c4ccccc4Cl)CC3)n2)c1 [compound 323]

logP [7]: 2.48*
Structure (SMILES): CC(C)(C)C(=O)Cc1ccc(Nc2ncc(Br)c(NCC3CC3)n2)cc1 [compound 455]

logP [3]: 1.43*
Structure (SMILES): O=C(c1cccc(Nc2ncc(Cl)c(NC3CC3)n2)c1)N1CCC1 [compound 1063]

logP (HPLC on reversed-phase C18, method **: 43° C., mobile phase 0.1% aqueous phosphoric acid and acetonitrile, linear gradient 10% to 95% acetonitrile): 1.58**
Structure (SMILES): O=S(=O)(Cc1ccc(Nc2ncc(Cl)c(NC3CC3)n2)cc1)NC1CC1 [compound 334]

logP [8]: 3.59**
Structure (SMILES): CSc1cccc(Nc2ncc(Cl)c(N(C)C3CC3)n2)c1 [compound 738]

logP [9]: 1.47*
Structure (SMILES): COc1ccc(Nc2ncc(Cl)c(NC3CC3)n2)cc1 [compound 284]

logP [9]: 2.68*
Structure (SMILES): CCC(=O)c1ccc(Nc2ncc(Br)c(NC3CC3)n2)cc1 [compound 356]

logP [6]: 1.6*
Structure (SMILES): O=C1CCCN1c1cccc(Nc2ncc(I)c(NC3CC3)n2)c1 [compound 637]

logP [10]: 2.48**
Structure (SMILES): NS(=O)(=O)c1cc(Nc2ncc(Cl)c(NC3CC3)n2)cc(C(F)(F)F)c1 [compound 17]

logP [1]: 3.68*
Structure (SMILES): CCCCC(=O)Oc1ccc(Nc2ncc(Cl)c(NC3CC3)n2)cc1 [compound 106]

logP [3]: 1.86*
Structure (SMILES): CC1CCCN1C(=O)c1cccc(Nc2ncc(Cl)c(NC3CC3)n2)c1 (stereo not drawn) [compound 1062]

logP [4]: 2.34*
Structure (SMILES): CCC(=O)c1ccc(Nc2ncc(Cl)c(NC3CC3)n2)cc1 [compound 257]

logP [4]: 1.63*
Structure (SMILES): CS(=O)(=O)c1cccc(Nc2ncc(Cl)c(NC3CC3)n2)c1 [compound 252]

logP [9]: 1.63*
Structure (SMILES): COC(=O)N(C)c1ccc(Nc2ncc(Cl)c(NC3CC3)n2)cc1 [compound 339]

logP [10]: 2.36**
Structure (SMILES): CN(C)S(=O)(=O)c1ccc(Nc2ncc(Cl)c(NCC3CC3)n2)cc1 [compound 14]

logP [3]: 2.78*
Structure (SMILES): COCCOc1cccc(Nc2ncc(C(F)(F)F)c(NC3CC3)n2)c1 [compound 1041]

logP [4]: 2.8*
Structure (SMILES): O=S(=O)(c1cccc(Nc2ncc(Cl)c(NC3CC3)n2)c1)N1CCCCC1 [compound 246]

logP [1]: 1.87*
Structure (SMILES): Cc1cccc(C)c1Nc1ncc(Cl)c(NCC2CC2)n1 [compound 682]

logP [7]: 3.17*
Structure (SMILES): CC(C)COc1cccc(Nc2ncc(Cl)c(NC3CC3)n2)c1 [compound 444]

logP [10]: 1.37**
Structure (SMILES): CNS(=O)(=O)Cc1ccc(Nc2ncc(Cl)c(NC3CC3)n2)cc1 [Example 48]
